Test results reported in patent publication US12351582B2, “Aurora kinase inhibitors and uses thereof” (WIGEN BIOMEDICINE TECHNOLOGY (SHANGHAI) CO., LTD., priority 2019, dated 2025).

Key:
Aurora-B = Aurora-B (Homo sapiens, UniProt Q96GD4); test: Aurora kinase activity assay (Caliper mobility shift), Aurora B; type: biochemical; conditions: recombinant Aurora kinase, FAM labeled peptide substrate
Experimental: (§1) The Caliper mobility shift assay was used to measure compound activity towards aurora kinase. 10 different concentrations of compounds were prepared by three-fold serial dilutions. Recombinant Aurora kinases in kinase buffer (20 mM HEPES, pH 7.5, 0.01% Triton X-100) were incubated with compounds for 10 minutes at room temperature. FAM labeled peptide substrates were subsequently added to initiate the reaction at 25° C. Conversion rates were measured by caliper after the reactions were terminated. […] Data were normalized to that of the vehicle control, and percentage of inhibition and IC50 were calculated.

H1975 cells = test: H1975 proliferation assay; type: cell-based; conditions: Homo sapiens, NCI-H1975; 72 hours incubation, cell survival through ATP quantification
Experimental: Cells were allowed to attach overnight and compounds were added to the cells for a further incubation of 72 hours. […] of CTL was added afterwards to measure cell survival through ATP quantification.

Aurora-A = target: T1, Aurora-A (Homo sapiens, UniProt O14965); test: Aurora kinase activity assay (Caliper mobility shift), Aurora A; type: biochemical; conditions: for IC50: recombinant Aurora kinase, FAM labeled peptide substrate
T1 sequence (O14965 1-403): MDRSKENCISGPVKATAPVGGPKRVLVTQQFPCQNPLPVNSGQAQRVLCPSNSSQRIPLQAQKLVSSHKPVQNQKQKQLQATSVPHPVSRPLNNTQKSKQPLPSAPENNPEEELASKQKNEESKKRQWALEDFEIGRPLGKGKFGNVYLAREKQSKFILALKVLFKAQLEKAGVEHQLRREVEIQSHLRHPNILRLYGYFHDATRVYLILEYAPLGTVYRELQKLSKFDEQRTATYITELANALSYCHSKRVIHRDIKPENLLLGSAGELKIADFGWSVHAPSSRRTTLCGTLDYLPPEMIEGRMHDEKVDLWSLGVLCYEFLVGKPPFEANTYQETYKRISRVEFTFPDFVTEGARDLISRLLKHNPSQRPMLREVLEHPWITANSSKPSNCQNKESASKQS
Experimental: as §1

H1975 xenograft = test: In vivo anti-tumor growth in H1975 mouse xenografts; parameters: species or system nude mice
Experimental: (§2) Cells were passaged and harvested by trypsinization. 8×10^6 cells were implanted in the left armpit of nude mice. […] Tumor volume and body weight were monitored every other day. Mice were sacrificed on day 21 of treatment. Relative tumor volume (RTV) and tumor growth (T/C), and tumor growth inhibition (TGI) were calculated and analyzed.

H69 xenograft = test: In vivo anti-tumor growth in H69 mouse xenografts; parameters: species or system nude mouse; conditions: for RTV (relative tumor volume, Vt/V0) / T/C / TGI (%) / Body weight (g) D1 / Tumor volume (mm^3) D1 / Body weight (g) D21 / Tumor volume (mm^3) D21: H69 xenograft, bid*21, oral; for Body weight (g) D1 / Tumor volume (mm^3) D1: D1 first day of treatment; for Body weight (g) D21 / Tumor volume (mm^3) D21: D21 last day of treatment
Experimental: as §2, with “1×10^7 H69” for “8×10^6”, “mouse.” for “mice.”, “measured” for “monitored”, “analyzed statistically.” for “analyzed.”

[1] = Dosage 60, qd*21, oral gavage, D1 first day of treatment
[2] = Dosage 60, qd*21, oral gavage, D21 last day of treatment

Sequence of Aurora-B (Q96GD4 whole entry): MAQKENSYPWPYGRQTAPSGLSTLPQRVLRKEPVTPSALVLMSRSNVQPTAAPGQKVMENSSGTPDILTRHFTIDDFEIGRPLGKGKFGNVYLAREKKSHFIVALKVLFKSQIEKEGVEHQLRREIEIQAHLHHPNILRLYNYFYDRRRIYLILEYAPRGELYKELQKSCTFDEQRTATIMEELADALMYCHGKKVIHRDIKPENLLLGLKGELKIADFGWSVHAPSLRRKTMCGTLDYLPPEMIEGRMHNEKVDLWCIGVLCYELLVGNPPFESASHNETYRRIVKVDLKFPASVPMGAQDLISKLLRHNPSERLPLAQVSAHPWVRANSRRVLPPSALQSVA

For `Cc1cc(Nc2ccc(F)c(CC3(C(=O)O)CCN(C(=O)c4cccc(Cl)c4F)C(C)C3)n2)n[nH]1` (stereo not shown) [Compound 22, 1-(3-chloro-2-fluorobenzoyl)-4-((3-fluoro-6-((5-methyl-1H-pyrazol-3-yl)amino)pyridin-2-yl)methyl)-2-methylpiperidine-4-carboxylic acid], the IC50 (Aurora-B) was 1140 nM, the IC50 (H1975 cells) was 155 nM and the IC50 (Aurora-A) was 1.21 nM.
`CC1CC(Cc2nc(Nc3nccs3)ccc2F)(C(=O)O)CCN1Cc1ccnc(Cl)c1F` (stereo not shown) [Compound 3, 1-((2-chloro-3-fluoropyridin-4-yl)methyl)-4-((3-fluoro-6-(thiazol-2-ylamino)pyridin-2-yl)methyl)-2-methylpiperidine-4-carboxylic acid] was tested, and the IC50 (Aurora-B) was 321 nM, the IC50 (H1975 cells) was 195 nM and the IC50 (Aurora-A) was 0.73 nM.
With `CC1CC(Cc2nc(Nc3nccs3)ccc2F)(C(=O)O)CCN1Cc1cccc2c1OC(F)(F)O2` (stereo not shown) [Compound 7, 1-((2,2-difluorobenzo[d][1,3]dioxol-4-yl)methyl)-4-((3-fluoro-6-(thiazol-2-ylamino)pyridin-2-yl)methyl)-2-methylpiperidine-4-carboxylic acid] the IC50 (Aurora-B) was 822 nM, the IC50 (H1975 cells) was 99 nM and the IC50 (Aurora-A) was 1.1 nM.
`[2H]C([2H])(c1cccc(Cl)c1F)N1CCC(Cc2nc(Nc3nccs3)ccc2F)(C(=O)O)CC1C` (stereo not shown) [Compound 13, 1-((3-chloro-2-fluorophenyl)methyl-d2)-4-((3-fluoro-6-(thiazol-2-ylamino)pyridin-2-yl)methyl)-2-methylpiperidine-4-carboxylic acid] gave an IC50 (Aurora-B) of 15 nM, an IC50 (H1975 cells) of 25 nM and an IC50 (Aurora-A) of 0.74 nM. The “RTV (relative tumor volume, Vt/V0)” value (H1975 xenograft; Dosage 60, qd*21, oral gavage) was 4.72, the “TGI (%)” value (H1975 xenograft; Dosage 60, qd*21, oral gavage) was 81.07% and the “Body weight (g) D1” value (H1975 xenograft; [1]) was 17.82 g. The “Tumor volume (mm^3) D1” value (H1975 xenograft; [1]) was 82.50 mm^3, the “Body weight (g) D21” value (H1975 xenograft; [2]) was 19.00 g and the “Tumor volume (mm^3) D21” value (H1975 xenograft; [2]) was 373.74 mm^3. The T/C (H1975 xenograft; Dosage 60, qd*21, oral gavage, TRTV/CRTV × 100) was 24.11% and the “activity in vivo in words (comment on Table 3)” value (H1975 xenograft; compared with LY-3295668) was “shows greater activity in vivo”.
`C[C@@H]1C[C@](Cc2nc(Nc3nccs3)ccc2F)(C(=O)O)CCN1Cc1cccc(Cl)c1F` [Compound 1-1, (2R,4R)-1-(3-chloro-2-fluorobenzyl)-4-((3-fluoro-6-(thiazol-2-ylamino)pyridin-2-yl)methyl)-2-methylpiperidine-4-carboxylic acid] was tested, and the IC50 (Aurora-B) was 16 nM, the IC50 (H1975 cells) was 12 nM and the IC50 (Aurora-A) was 0.4 nM. For the same compound, the “potency in words (comment on Table 2)” value (Aurora-A; towards Aurora-A, Aurora-B and H1975) was “more potent than its racemic mixture”, the “H69 tumor growth in words (comment on Table 4)” value (H69 xenograft; 2.5, 5 and 10 mg/kg twice daily, compared to LY-3295668) was “blocks H69 tumor growth in a dose dependent manner with markedly improved efficacy compared to LY-3295668” and the “RTV (relative tumor volume, Vt/V0)” value (H69 xenograft; 2.5 mg/kg) was 0.65. For the same compound, the T/C (H69 xenograft; 2.5 mg/kg) was 20%, the “TGI (%)” value (H69 xenograft; 2.5 mg/kg) was 111.16% and the “Body weight (g) D1” value (H69 xenograft; 2.5 mg/kg) was 15.99 g. For the same compound, the “Tumor volume (mm^3) D1” value (H69 xenograft; 2.5 mg/kg) was 287.46 mm^3, the “Body weight (g) D21” value (H69 xenograft; 2.5 mg/kg) was 16.73 g and the “Tumor volume (mm^3) D21” value (H69 xenograft; 2.5 mg/kg) was 180.58 mm^3. For the same compound, the “RTV (relative tumor volume, Vt/V0)” value (H69 xenograft; 5 mg/kg) was 0.33, the T/C (H69 xenograft; 5 mg/kg) was 10% and the “TGI (%)” value (H69 xenograft; 5 mg/kg) was 120.31%. For the same compound, the “Body weight (g) D1” value (H69 xenograft; 5 mg/kg) was 15.91 g, the “Tumor volume (mm^3) D1” value (H69 xenograft; 5 mg/kg) was 284.84 mm^3 and the “Body weight (g) D21” value (H69 xenograft; 5 mg/kg) was 16.01 g. The “Tumor volume (mm^3) D21” value (H69 xenograft; 5 mg/kg) was 90.43 mm^3, the “RTV (relative tumor volume, Vt/V0)” value (H69 xenograft; 10 mg/kg) was 0.37 and the T/C (H69 xenograft; 10 mg/kg) was 11%. For the same compound, the “TGI (%)” value (H69 xenograft; 10 mg/kg) was 120.34%, the “Body weight (g) D1” value (H69 xenograft; 10 mg/kg) was 16.16 g and the “Tumor volume (mm^3) D1” value (H69 xenograft; 10 mg/kg) was 287.92 mm^3. The “Body weight (g) D21” value (H69 xenograft; 10 mg/kg) was 16.19 g and the “Tumor volume (mm^3) D21” value (H69 xenograft; 10 mg/kg) was 93.16 mm^3.
Work on `CC1CC(Cc2nc(Nc3nccs3)ccc2F)(C(=O)O)CCN1C(C)c1cccc(Cl)c1F` (stereo not shown) [Compound 9, 1-(1-(3-chloro-2-fluorophenyl)ethyl)-4-((3-fluoro-6-(thiazol-2-ylamino)pyridin-2-yl)methyl)-2-methylpiperidine-4-carboxylic acid] yielded an IC50 (Aurora-B) of 126 nM, an IC50 (H1975 cells) of 81 nM and an IC50 (Aurora-A) of 0.98 nM.
`CC1(C)CC(Cc2nc(Nc3nccs3)ccc2F)(C(=O)O)CCN1Cc1cccc(Cl)c1F` (stereo not shown) [Compound 20, 1-(3-chloro-2-fluorobenzyl)-4-((3-fluoro-6-(thiazol-2-ylamino)pyridin-2-yl)methyl)-2,2-dimethylpiperidine-4-carboxylic acid] gave an IC50 (Aurora-B) of 435 nM, an IC50 (H1975 cells) of 156 nM and an IC50 (Aurora-A) of 1.42 nM.
`CC1CC(Cc2nc(Nc3nccs3)ccc2F)(C(=O)O)CCN1Cc1cccc(Cl)c1F` (racemic) [Compound 1, 1-(3-chloro-2-fluorobenzyl)-4-((3-fluoro-6-(thiazol-2-ylamino)pyridin-2-yl)methyl)-2-methylpiperidine-4-carboxylic acid] was tested, and the IC50 (Aurora-B) was 20 nM, the IC50 (H1975 cells) was 22 nM and the IC50 (Aurora-A) was 0.64 nM.
